Here are results for seven compounds from patent US5607966A, “Esters and amides of non-steroidal anti-inflammatory carboxylic acids which may be used as anti-oxidants, 5-lipoxygenase inhibitors and non-steroidal anti-inflammatory prodrugs” (Alcon Laboratories, Inc., priority 1994, dated 1997).

One assay concerns bovine retinal pieces. The experiment in a line: inhibition of lipid peroxide formation (TBARS) in bovine retinal pieces after hypoxia/reoxygenation. It is filed as cell-based. Conditions: hypoxia 1 hour, reoxygenated for 1 hour, agent added after 50 minutes of hypoxia. How it is done: The cytoprotective effects of the compounds were measured using bovine retinal pieces. Retinal tissues were incubated in hypoxic media for 1 hour. After 50 minutes of hypoxia, test agents were added to the media to allow 10 minutes for the drug to diffuse into the tissue prior to reoxygenation. The vehicle by itself, was added to the non-drug group. Following the incubation period, tissue was reoxygenated for 1 hour. Lipid peroxidation was assessed by the formation of thiobarbituric acid reacting substances (TBARS). The tissues were homogenized and added to the trichloroacetic acid-thiobarbituric acid reagent and heated in the presence of BHT. The homogenate was filtered and the absorbance of the supernant was measured spectrophotometrically. A double derivative technique was used to calculate the concentration of TBARS present in each sample. Quantitation was based on a molar extinction coefficient of 1.56×10^5.

In the next assay the target is T1, 5-lipoxygenase (Oryctolagus cuniculus, UniProt G1SNX0).
T1 construct: neutrophils isolated from rabbit peripheral blood; endogenous in cells; host or cells: neutrophils from peripheral blood of New Zealand Albino rabbits
T1 sequence (G1SNX0 1-674): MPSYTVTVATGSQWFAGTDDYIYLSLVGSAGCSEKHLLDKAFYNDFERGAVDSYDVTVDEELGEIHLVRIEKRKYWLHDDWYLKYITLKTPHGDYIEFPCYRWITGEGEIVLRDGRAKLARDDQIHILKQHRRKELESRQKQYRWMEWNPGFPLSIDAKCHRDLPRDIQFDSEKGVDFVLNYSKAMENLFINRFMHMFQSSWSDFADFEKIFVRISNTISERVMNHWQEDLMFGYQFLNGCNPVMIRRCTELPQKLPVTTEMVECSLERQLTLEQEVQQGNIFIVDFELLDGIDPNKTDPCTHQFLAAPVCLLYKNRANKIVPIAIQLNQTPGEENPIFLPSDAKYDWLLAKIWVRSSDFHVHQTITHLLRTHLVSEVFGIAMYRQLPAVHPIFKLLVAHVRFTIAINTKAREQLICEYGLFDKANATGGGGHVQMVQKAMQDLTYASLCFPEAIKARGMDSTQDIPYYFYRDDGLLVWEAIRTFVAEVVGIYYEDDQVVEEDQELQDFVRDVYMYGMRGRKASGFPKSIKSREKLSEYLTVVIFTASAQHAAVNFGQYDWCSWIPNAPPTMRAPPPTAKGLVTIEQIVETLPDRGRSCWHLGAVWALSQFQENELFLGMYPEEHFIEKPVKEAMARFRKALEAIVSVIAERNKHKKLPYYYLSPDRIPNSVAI
The experiment in a line: 5-lipoxygenase inhibition (5-HETE and LTB4 formation) in A23187-stimulated rabbit neutrophils. Conditions: A23187 5.0 μM, arachidonic acid 52 μM, 3 minutes at 37° C. Type of assay: cell-based, rabbit (New Zealand Albino). As to the method:
The 5-lipoxygenase inhibitor activity was determined by measuring the inhibition of 5-HETE and LTB4 formation. The ability of a compound to suppress 5-HETE and LTB4 formation was investigated in calcium ionophore (A23187)-stimulated neutrophils isolated from rabbit peripheral blood. Neutrophils were isolated by standard procedures. Briefly, heparinized/calcium chelated blood was obtained from New Zealand Albino (NZA) rabbits by heart puncture. Red cells were removed at 4° C. by dextran sedimentation,as described in Blood, volume 11, 436 (1956). White cells, contained in the supernatant fraction, were sedimented by centrifugation and contaminating red cells removed by hypotonic lysis. The white cell pellet obtained, following red cell lysis and centrifugation, was resuspended in Dulbecco's PBS (Ca^2+ /Mg^2+ -free) and layered onto a 60% Histopaque-1083®/40% Histopaque-1119® cushion (Sigma Chemical, St. Louis, Mo., U.S.A.). The Histopaque® cushion was then centrifuged, and the resulting neutrophil pellet was washed and resuspended in 1/25 of the original blood volume. Aliquots of the cell suspension were pretreated for 5 minutes at 37° C. with carrier (DMSO) or test article dissolved in DMSO. CaCl2 was immediately added to the cell suspension and cells stimulated by addition of 5 microliters [μl] of a mixture containing [1-^14 C]-arachidonic acid and A23187 in DMSO. […]

Assay [1] has as its system endotoxin-induced uveitis in female Lewis rats (neutrophil influx into ocular tissue). The experiment in a line: endotoxin-induced uveitis model, neutrophil influx (MPO activity) into the eye after topical administration. Type of assay: in vivo, rat (female Lewis). As to conditions: for % Inhibition of Influx: topical 5 μl to each eye, 24 hours post endotoxin; for inhibition of neutrophil influx into the rat eye (in words): endotoxin induced uveitis, following topical administration. As to the method:
The topical ophthalmic activity of representative compounds of the present invention, as compared with dexamethasone, is shown in Table 5 below. The compounds were evaluated in an endotoxin-induced uveitis model. This subacute model of ocular inflammation is characterized by the infiltration of neutrophils into the ocular tissue following administration of an endotoxin.
Ocular inflammation in female Lewis rats was initiated by hindpaw injection of 0.1 milliliters [ml] sterile saline (0.9% NaCl, weight:volume [w:v]) containing […] bacterial endotoxin (LPS; Escherichia coli 055:B5). Test compound or vehicle (carbopol/maxidex), 5 μl, was administered topically to each eye of the experimental animal 20 and 24 hours prior to endotoxin injection, immediately before endotoxin injection, and 4 and 20 hours after endotoxin injection. Twenty-four hours post endotoxin injection, animals were sacrificed by CO2 inhalation, and total ocular polymorphonuclear neutrophil (PMN) content was assessed indirectly by determination of myleoperoxide activity (MPO).
Ocular tissues were prepared for the quantification of neutrophil content as follows: Eyes were homogenized in 2.5 ml of ice-cold 50 mM phosphate/10mM N-ethylmaleimide buffer. The Brinkman homogenation probe was rinsed three (3) times with 2.5 ml of the same buffer and the probe washings were combined with the initial tissue homogenate. The homogenate was centrifuged for 30 minutes at 12,000×gravitational constant [g] at 4° C. The supernatant was discarded and the proteinaceous pellet was solubilized on 0.5 ml of ice-cold 0.5% hexadecyltrimethyl ammonium bromide (HTABr)/50 mM phosphate buffer (pH 6.0). The detergent-treated pellet homogenate was centrifuged at 4° C. for 30 minutes at 12,000×g and the supernatant collected and assayed for MPO activity in a buffer containing 50 mM phosphate/250 mM HTABr/250 μM hydrogen peroxide and 1.5 mM o-dianisidine (pH 6.0). o-Dianisidine oxidation was monitored spectrophotometrically at a wavelength of 460 nanometers [nm].

The nature of assay [2]: phospholipid oxidation assay (conjugate diene formation in liposomes, Fe+3/EDTA and ascorbate). It is filed as biochemical. As to conditions: Fe+3/EDTA (167 μM) and ascorbate (167 μM), one hour. As to the method:
Antioxidant activity was measured using a phospholipid oxidation assay. Liposomes were formed from dilineoleolylphosphocholine and the test compound. Free radical damage was induced by exposure to Fe^+3 /EDTA (167 micromolar [μM]) and ascorbate (167 μM). Oxidation was terminated after one hour by freezing in liquid nitrogen. Lyophilized samples were then dissolved in methanol or water. Oxidation was measured by conjugate diene formation, monitored using UV spectroscopy as described in Biochimica et Biophyica Acta, volume 1081, 181-187, (1991). The IC50 was calculated using the following non-linear regression algorithm: Y=A/[1+(B/X)^c ], wherein A=maximum, B=IC^50 and c=cooperativity or relative broadness of the curves. The minimum was assumed to be zero.

As a reminder, the IC50 is the concentration needed to halve the response being measured. Turning to `COc1ccc2cc(C(C)C(=O)N(C)CC(O)c3ccc(O)c(O)c3)ccc2c1` (stereo not drawn) [Compound A, N-(2-(3,4-dihydroxyphenyl)-2-hydroxyethyl)-N-methyl 2-(6-methoxy-2-naphthyl)propionamide], the IC50 with bovine retinal pieces (Bos taurus) is 150 nM; on 5-lipoxygenase, 4000 nM. Also, the “% Inhibition of Influx” value in assay [1] (concentration 0.1%) worked out at 40%. In addition, the “inhibition of neutrophil influx into the rat eye (in words)” value in assay [1] was “significantly inhibited neutrophil influx”.

In the case of `COc1ccc2cc(C(C)C(=O)OCC3(C)CCc4c(C)c(O)c(C)c(C)c4O3)ccc2c1` (stereo not drawn) [Compound B, 2-(6-hydroxy-2,5,7,8-tetramethyl-3,4-dihydro-2H-benzo[1,2-b]pyran-2-yl)methyl 2-(6-methoxy-2-naphthyl)propionate], half-maximal inhibition in assay [2] (IC50) required 1160 nM.

With `COc1ccc2cc(C(C)C(=O)OCCC3(C)CCc4c(C)c(O)c(C)c(C)c4O3)ccc2c1` (stereo not drawn) [Compound D, 2-(6-hydroxy-2,5,7,8-tetramethyl-3,4-dihydro-2H-benzo[1,2-b]pyran-2yl)ethyl 2-(6-methoxy-2-naphthyl)propionate], the results for the IC50 (in assay [2]; in the assay on bovine retinal pieces (Bos taurus); on 5-lipoxygenase) were 2230 nM, 6 nM and 1000 nM, respectively. Moreover, the “% Inhibition of Influx” value in assay [1] (concentration 1.0%) was found to be 40%. For the same compound, the “inhibition of neutrophil influx into the rat eye (in words)” value in assay [1] is on record as “significantly inhibited neutrophil influx”.

In turn, `COc1ccc2cc(C(C)C(=O)OCC3(C)Cc4c(C)c(O)c(C)c(C)c4O3)ccc2c1` (stereo not drawn) [Compound E, 2-(5-hydroxy-2,4,6,7-tetramethyl-2,3-dihydro-benzo[1,2-b]furan-2-yl)methyl2-(6-methoxy-2-naphthyl)propionate] showed an IC50 in the assay on bovine retinal pieces (Bos taurus) of 10 nM.

As to `COc1ccc2cc(C(C)C(=O)OCCC3(C)Cc4c(C)c(O)c(C)c(C)c4O3)ccc2c1` (stereo not drawn) [Compound F, 2-(5-hydroxy-2,4,6,7-tetramethyl-2,3-dihydro-benzo[1,2-b]furan-2-yl)ethyl 2-(6-methoxy-2-naphthyl)propionate], the midpoint of inhibition in assay [2], the IC50, lay at 2550 nM.

`C[C@@H]1C[C@H]2[C@@H]3CCC4=CC(=O)C=C[C@]4(C)[C@@]3(F)[C@@H](O)C[C@]2(C)[C@@]1(O)C(=O)CO` [Dexamethasone, reference compound]: the “% Inhibition of Influx” value in assay [1] (concentration 0.1%) stood at 93%.

Take Vitamin E [reference compound]: the 50% inhibitory concentration (IC50) came to 4420 nM in assay [2] and 5000 nM in the assay with bovine retinal pieces.
